Data: patent US20060083748A1, “Calixarenes for use as excipient for an active substance” (priority 2002, published 2006)
Read-outs that look alike come from different tables or passages of the source.

What was measured:
[1] = Membrane permeation, PAMPORE system (hydrophilic pores in the lipid layer); settings: hydrophilic pores in the lipid layer (paracellular path); 125 or 250 μM, Tris-buffer pH 7.4, 16 hours
Description: (§1) The combination of these two test systems allows the study of the permeability of a plurality of active ingredients independently of the type of transport which they prefer.

[2] = Membrane permeation, traditional artificial membrane without hydrophilic pores (Standard); settings: artificial membrane without hydrophilic pores (transcellular path); 125 or 250 μM, Tris-buffer pH 7.4, 16 hours
Description: as §1

Varizella zoster = settings: cited from earlier work
CMV = settings: in achievable concentrations; cited from earlier work
[3] = AIDS, chemotherapy; i.v. administration; cited from earlier work
herpes simplex = settings: cited from earlier work
Epstein-Barr = settings: cited from earlier work
[4] = tested on: Herpes simplex 1, herpes simplex 2, varicella zoster; settings: cited from earlier work
[5] = cited from earlier work

## 5,11,17,23-tetrasulphonic acid calix[4]arenes
[1]
  Membrane permeation (%) PAMPORE: 100%
[2]
  Membrane permeation (%) Standard: <15%

## Tetramethyltetramethyl resorcin[4]arenes
[1]
  Membrane permeation (%) PAMPORE: 95%
[2]
  Membrane permeation (%) Standard: <15%

## Nc1nc2c(ncn2COCCO)c(=O)[nH]1 [aciclovir]
Varizella zoster; in vivo
  Effect on post-herpetic neuralgia: no clear effect
Varizella zoster; symptoms, lesions, pain
  Effect on healing in varizella zoster infections: faster healing
CMV
  Activity against CMV: not active
[3]
  Effect in immune suppressed patients: prevents dissemination, faster healing
Herpes simplex; chron. suppressive therapy
  Effect in recurring mucocutaneous herpes infections: reduces rate of attack
Herpes simplex; mucocutaneous herpes simplex infections
  Effect in mucocutaneous herpes simplex infections: overall moderate benefit
Epstein-Barr
  Activity against Epstein-Barr: only in vitro
[4]
  Activity (order of activity against viruses): Herpes simplex 1>herpes simplex 2>varicella zoster
[5]; anuria (renal insufficiency)
  t/2: 18 h
[5]; normal renal function
  t/2: 3 h

## Hexasulphonic acid calix[6]arenes
[1]
  Membrane permeation (%) PAMPORE: 100%
[2]
  Membrane permeation (%) Standard: 0%
